# Test results reported in US20240058315A1, “Pyridine and Pyrazine derivative for the Treatment of CF, COPD, and Bronchiectasis” (NOVARTIS AG, priority 2019, published 2024).
# Target: ΔF508-CFTR (Homo sapiens (Human), UniProt P13569, DEL508-508)
# Assay: CFTR potentiator assays (membrane potential, IonWorks Quattro, Ussing chamber ion transport)
# Format: cell-based
# Conditions: CFTR EC50 in 'the data measurements described above'; which of the potentiator assays is not stated
# Source text: CFTR activity can be quantified by measuring the transmembrane potential. The means for measuring the transmembrane potential in a biological system can employ a number of methods including electrophysiological and optical fluorescence-based membrane potential assays.
# The optical membrane potential assay utilises a negatively charged potentiometric dye, such as the FLIPR membrane potential dye (FMP) (see Baxter D F, Kirk M, Garcia A F, Raimondi A, Holmqvist M H, Flint K K, Bojanic D, Distefano P S, Curtis R, Xie Y. ‘A novel membrane potential-sensitive fluorescent dye improves cell-based assays for ion channels.’ J Biomol Screen. 2002 February; 7(1):79-85) which when extracellular is bound to a quenching agent.
# Upon cellular depolarisation the negatively charged dye redistributes to the intracellular compartment, unbinding from the membrane impermeant quench agent, yielding an increase in fluorescence. This change in fluorescence is proportional to the change in transmembrane potential which can result from the activity of CFTR. The changes in fluorescence can be monitored in real time by an appropriately equipped fluorescence detector such as the FLIPR (fluorometric imaging plate reader) in 96 or 384-well microtitre plates.
# Chinese hamster ovary (CHO) cells stably expressing the AF508-CFTR channel were used for membrane potential experiments. Cells were maintained at 37° C. in 5% v/v CO2 at 100% humidity in Modified Eagles medium (MEM) supplemented with 8% v/v foetal calf serum, 100 μg/ml methotrexate and 100 U/ml penicillin/streptomycin. Cells were grown in 225 cm^2 tissue culture flasks. For membrane potential assays cells were seeded into 96 well plates at 40,000 cells per well, allowed to adhere and then maintained at 26° C. for 48 h to facilitate channel insertion.
# The membrane potential screening assay utilised a low chloride ion containing extracellular solution (˜5 mM) combined with a double addition protocol. The first addition was of buffer with or without test compound followed 5 minutes later by an addition of forskolin (1-20 μM)—this protocol favours maximum chloride efflux in response to ΔF508-CFTR activation. The ΔF508-CFTR mediated chloride ion efflux leads to a membrane depolarisation which is optically monitored by the FMP dye.
# Low chloride extracellular (mM): 120 Na-gluconate, 1.2 CaCl2), 3.3 KH2PO4, 0.8 K2HPO4, 1.2 MgCl2, 10.0 D-glucose, 20.0 HEPES, pH 7.4 with NaOH FMP dye: made up as per manufacturers' instructions in low chloride extracellular solution detailed above, at 10× final concentration, and stored as 1 mL aliquots at −20° C.
# CFTR activity can also be quantified electrophysiologically using the whole-cell configuration of the patch clamp technique (Hamill et al Pflugers Archive 1981). This assay directly measures the currents associated with chloride flow through CFTR channels whilst either maintaining or adjusting the transmembrane voltage. This assay can use either single glass micropipettes or parallel planar arrays to measure CFTR activity from native or recombinant cell systems. Currents measured using parallel planar arrays can be quantified using an appropriately equipped instrument such as the IonWorks Quattro (Molecular Devices) or the Qpatch (Sophion). The Quattro system can measure CFTR currents from either a single cell per recording well (HT configuration) or alternatively from a population of 64 cells per well (Population Patch Clamp PPC) (Finkel A, Wittel A, Yang N, Handran S, Hughes J, Costantin J. ‘Population patch clamp improves data consistency and success rates in the measurement of ionic currents.’ J Biomol Screen. 2006 August; 11(5):488-96).
# Chinese hamster ovary (CHO) cells stably expressing the ΔF508-CFTR channel were used for IonWorks Quattro experiments. […]
# ΔF508-CFTR, sequence (P13569 other isoform, or with tags, fused parts or gaps del F508-F508): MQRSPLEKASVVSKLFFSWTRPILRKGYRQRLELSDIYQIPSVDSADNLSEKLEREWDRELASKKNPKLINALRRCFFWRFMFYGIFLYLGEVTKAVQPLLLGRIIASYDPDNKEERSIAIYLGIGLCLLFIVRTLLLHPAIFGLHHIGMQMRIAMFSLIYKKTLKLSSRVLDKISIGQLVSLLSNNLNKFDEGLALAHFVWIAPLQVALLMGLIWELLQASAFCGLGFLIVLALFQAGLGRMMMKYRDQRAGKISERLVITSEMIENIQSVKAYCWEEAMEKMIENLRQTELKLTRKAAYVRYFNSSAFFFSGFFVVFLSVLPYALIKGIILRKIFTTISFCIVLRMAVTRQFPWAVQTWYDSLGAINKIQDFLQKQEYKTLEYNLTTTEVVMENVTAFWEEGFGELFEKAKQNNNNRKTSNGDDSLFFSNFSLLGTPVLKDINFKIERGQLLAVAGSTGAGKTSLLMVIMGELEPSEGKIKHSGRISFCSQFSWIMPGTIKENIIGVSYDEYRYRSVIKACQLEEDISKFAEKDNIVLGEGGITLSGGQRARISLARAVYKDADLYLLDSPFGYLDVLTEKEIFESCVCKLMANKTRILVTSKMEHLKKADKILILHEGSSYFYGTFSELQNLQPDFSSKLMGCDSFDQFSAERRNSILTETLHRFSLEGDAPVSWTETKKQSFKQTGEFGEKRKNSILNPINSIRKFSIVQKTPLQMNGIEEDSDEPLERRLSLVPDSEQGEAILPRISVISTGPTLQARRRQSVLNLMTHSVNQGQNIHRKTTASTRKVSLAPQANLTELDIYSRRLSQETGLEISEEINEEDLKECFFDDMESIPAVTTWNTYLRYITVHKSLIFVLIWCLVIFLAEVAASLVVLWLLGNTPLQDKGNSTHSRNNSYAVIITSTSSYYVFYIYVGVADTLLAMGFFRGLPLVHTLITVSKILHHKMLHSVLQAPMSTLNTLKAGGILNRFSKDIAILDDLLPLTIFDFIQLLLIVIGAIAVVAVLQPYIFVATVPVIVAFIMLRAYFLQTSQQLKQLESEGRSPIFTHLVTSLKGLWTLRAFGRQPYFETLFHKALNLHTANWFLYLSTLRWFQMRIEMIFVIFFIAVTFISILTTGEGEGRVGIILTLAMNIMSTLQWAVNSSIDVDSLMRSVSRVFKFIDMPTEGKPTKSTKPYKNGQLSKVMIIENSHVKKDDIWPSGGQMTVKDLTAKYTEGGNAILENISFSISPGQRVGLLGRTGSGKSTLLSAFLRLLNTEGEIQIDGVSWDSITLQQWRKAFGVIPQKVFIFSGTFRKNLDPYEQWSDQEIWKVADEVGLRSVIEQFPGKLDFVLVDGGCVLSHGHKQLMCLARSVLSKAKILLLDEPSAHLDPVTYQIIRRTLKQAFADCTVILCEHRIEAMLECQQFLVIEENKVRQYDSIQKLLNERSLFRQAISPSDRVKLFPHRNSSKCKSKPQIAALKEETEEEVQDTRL
row,EC50 [nM],SMILES
1,60,"C[C@@](O)(CNC(=O)c1nc(-c2ccc(F)cc2)c(C(F)(F)F)cc1N)C(F)(F)F [Example 8, 3-Amino-6-(4-fluoro-phenyl)-5-trifluoromethyl-pyridine-2-carboxylic acid ((R)-3,3,3-trifluoro-2-hydroxy-2-methyl-propyl)-amide]"
2,112,"CC(O)(CNC(=O)c1nc(-c2ccc(Cl)cc2Cl)c(C(F)(F)F)cc1N)C(F)(F)F (single isomer, unassigned) [Example 10, 3-Amino-6-(2,4-dichloro-phenyl)-5-trifluoromethyl-pyridine-2-carboxylic acid (3,3,3-trifluoro-2-hydroxy-2-methyl-propyl)-amide]"
3,55,"C[C@](O)(CNC(=O)c1nc(Br)c(C(F)(F)F)cc1N)C(F)(F)F [Example 3, 3-Amino-6-bromo-5-trifluoromethyl-pyridine-2-carboxylic acid ((S)-3,3,3-trifluoro-2-hydroxy-2-methyl-propyl)-amide]"
4,40,"C[C@](O)(CNC(=O)c1nc(-c2ccc(F)cc2)c(C(F)(F)F)cc1N)C(F)(F)F [Example 7, 3-Amino-6-(4-fluoro-phenyl)-5-trifluoromethyl-pyridine-2-carboxylic acid ((S)-3,3,3-trifluoro-2-hydroxy-2-methyl-propyl)-amide]"
5,51,"Cc1ccc(-c2nc(C(=O)NCC(C)(O)C(F)(F)F)c(N)cc2C(F)(F)F)cn1 (single isomer, unassigned) [Example 15, 5-Amino-6′-methyl-3-trifluoromethyl-[2,3′]bipyridinyl-6-carboxylic acid (3,3,3-trifluoro-2-hydroxy-2-methyl-propyl)-amide]"
6,115,"Cc1ccc(-c2nc(C(=O)NCC(O)(C(F)(F)F)C(F)(F)F)c(N)cc2C(F)(F)F)cn1 [Example 14, 5-Amino-6′-methyl-3-trifluoromethyl-[2,3′]bipyridinyl-6-carboxylic acid (3,3,3-trifluoro-2-hydroxy-2-trifluoromethyl-propyl)-amide]"
7,15,"C[C@@](O)(CNC(=O)c1nc(Br)c(C(F)(F)F)cc1N)C(F)(F)F [Example 2, 3-Amino-6-bromo-5-trifluoromethyl-pyridine-2-carboxylic acid ((R)-3,3,3-trifluoro-2-hydroxy-2-methyl-propyl)-amide]"
8,37,"CC(C)(O)CNC(=O)c1nc(-c2ccc(F)cc2)c(C(F)(F)F)cc1N [Example 11, 3-Amino-6-(4-fluoro-phenyl)-5-trifluoromethyl-pyridine-2-carboxylic acid (2-hydroxy-2-methyl-propyl)-amide]"
9,76,"COc1nc(C(=O)NCC(C)(O)C(F)(F)F)c(N)cc1C(F)(F)F (racemic) [Example 4, 3-Amino-6-methoxy-5-trifluoromethyl-pyridine-2-carboxylic acid (3,3,3-trifluoro-2-hydroxy-2-methyl-propyl)-amide]"
10,8,"C[C@](O)(CNC(=O)c1nc(C(F)(F)F)c(C(F)(F)F)cc1N)C(F)(F)F [Example 16, 3-Amino-5,6-bis-trifluoromethyl-pyridine-2-carboxylic acid ((S)-3,3,3-trifluoro-2-hydroxy-2-methyl-propyl)-amide]"
11,10,"C[C@@](O)(CNC(=O)c1nc(C(F)(F)F)c(C(F)(F)F)cc1N)C(F)(F)F [Example 17, 3-Amino-5,6-bis-trifluoromethyl-pyridine-2-carboxylic acid ((R)-3,3,3-trifluoro-2-hydroxy-2-methyl-propyl)-amide]"
12,90,"CC(O)(CNC(=O)c1nc(-c2ccc(Cl)cc2Cl)c(C(F)(F)F)cc1N)C(F)(F)F (single isomer, unassigned) [Example 9, 3-Amino-6-(2,4-dichloro-phenyl)-5-trifluoromethyl-pyridine-2-carboxylic acid (3,3,3-trifluoro-2-hydroxy-2-methyl-propyl)-amide]"
13,426,"COc1nc(C(=O)NC[C@@](C)(O)C(F)(F)F)c(N)cc1C(F)(F)F (single isomer, unassigned) [Example 6]"
14,35,"COc1nc(C(=O)NCC(O)C(F)(F)F)c(N)cc1C(F)(F)F (centres unmarked) [Example 12, 3-Amino-6-methoxy-5-trifluoromethyl-pyridine-2-carboxylic acid (3,3,3-trifluoro-2-hydroxy-propyl)-amide]"
